Data reported in patent US11434221B2, “Pyrazine-4-carbamate or -urea derivatives as herbicides” (Syngenta Participations AG, priority 2017, dated 2022).

Assays:
Assay type in all cases: in vivo
Parameters in all cases: key: 5=total damage to plant; 0=no damage to plant
[1] = test system: Echinochloa crus-galli (ECHCG); assay: Pre-emergence herbicidal activity, glasshouse pot test; conditions: sprayed one day after sowing, evaluated after 13 days
Method: (§1) Seeds of a variety of test species were sown in standard soil in pots: Triticum aestivium (TRZAW), Avena fatua (AVEFA), Alopecurus myosuroides (ALOMY), Echinochloa crus-galli (ECHCG), Lolium perenne (LOLPE), and Setaria faberi (SETFA). After cultivation for one day (pre-emergence) under controlled conditions in a glasshouse (at 24/16° C., day/night; 14 hours light; 65% humidity), the plants were sprayed with an aqueous spray solution derived from the formulation of the technical active ingredient in acetone/water (50:50) solution containing 0.5% Tween 20 (polyoxyethelyene sorbitan monolaurate, CAS RN 9005-64-5). The test plants were then grown in a glasshouse under controlled conditions (at 24/16° C., day/night; 14 hours light; 65% humidity) and watered twice daily. After 13 days, the test was evaluated (5=total damage to plant; 0=no damage to plant).

[2] = test system: Triticum aestivium (TRZAW); assay: as above; conditions: sprayed one day after sowing, evaluated after 13 days
Method: as §1

Avena fatua (AVEFA) [3] = assay: as above; conditions: sprayed one day after sowing, evaluated after 13 days
Method: as §1

[4] = test system: Alopecurus myosuroides (ALOMY); assay: as above; conditions: sprayed one day after sowing, evaluated after 13 days
Method: as §1

Setaria faberi (SETFA) [5] = assay: as above; conditions: sprayed one day after sowing, evaluated after 13 days
Method: as §1

Lolium perenne (LOLPE) [6] = assay: as above; conditions: sprayed one day after sowing, evaluated after 13 days
Method: as §1

[7] = test system: Echinochloa crus-galli (ECHCG); assay: Post-emergence herbicidal activity, glasshouse pot test; conditions: sprayed after 8 days cultivation, evaluated after 13 days
Method: (§2) Seeds of a variety of test species were sown in standard soil in pots: Triticum aestivium (TRZAW), Avena fatua (AVEFA), Alopecurus myosuroides (ALOMY), Echinochloa crus-galli (ECHCG), Lolium perenne (LOLPE), and Setaria faberi (SETFA). After 8 days cultivation (post-emergence) under controlled conditions in a glasshouse (at 24/16° C., day/night; 14 hours light; 65% humidity), the plants were sprayed with an aqueous spray solution derived from the formulation of the technical active ingredient in acetone/water (50:50) solution containing 0.5% Tween 20 (polyoxyethelyene sorbitan monolaurate, CAS RN 9005-64-5). The test plants were then grown in a glasshouse under controlled conditions (at 24/16° C., day/night; 14 hours light; 65% humidity) and watered twice daily. After 13 days, the test was evaluated (5=total damage to plant; 0=no damage to plant).

[8] = test system: Triticum aestivium (TRZAW); assay: as above; conditions: sprayed after 8 days cultivation, evaluated after 13 days
Method: as §2

Avena fatua (AVEFA) [9] = assay: as above; conditions: sprayed after 8 days cultivation, evaluated after 13 days
Method: as §2

[10] = test system: Alopecurus myosuroides (ALOMY); assay: as above; conditions: sprayed after 8 days cultivation, evaluated after 13 days
Method: as §2

Setaria faberi (SETFA) [11] = assay: as above; conditions: sprayed after 8 days cultivation, evaluated after 13 days
Method: as §2

Lolium perenne (LOLPE) [12] = assay: as above; conditions: sprayed after 8 days cultivation, evaluated after 13 days
Method: as §2

## CC(C)(C)OC(=O)Nc1ncc(-c2cncc(F)c2)nc1CO [Compound H22]
[1]; Rate 1000 g/ha
  Control of weed species after pre-emergence application, ECHCG (damage score 0-5): 0
[2]; Rate 1000 g/ha
  Control of weed species after pre-emergence application, TRAZW (damage score 0-5): 0
Avena fatua (AVEFA) [3]; Rate 1000 g/ha
  Control of weed species after pre-emergence application, AVEFA (damage score 0-5): 0
[4]; Rate 1000 g/ha
  Control of weed species after pre-emergence application, ALOMY (damage score 0-5): 0
Setaria faberi (SETFA) [5]; Rate 1000 g/ha
  Control of weed species after pre-emergence application, SETFA (damage score 0-5): 0
Lolium perenne (LOLPE) [6]; Rate 1000 g/ha
  Control of weed species after pre-emergence application, LOLPE (damage score 0-5): 0
[7]; Rate 1000 g/ha
  Control of weed species after post-emergence application, ECHCG (damage score 0-5): 1
[8]; Rate 1000 g/ha
  Control of weed species after post-emergence application, TRAZW (damage score 0-5): 0
Avena fatua (AVEFA) [9]; Rate 1000 g/ha
  Control of weed species after post-emergence application, AVEFA (damage score 0-5): 1
[10]; Rate 1000 g/ha
  Control of weed species after post-emergence application, ALOMY (damage score 0-5): 0
Setaria faberi (SETFA) [11]; Rate 1000 g/ha
  Control of weed species after post-emergence application, SETFA (damage score 0-5): 2
Lolium perenne (LOLPE) [12]; Rate 1000 g/ha
  Control of weed species after post-emergence application, LOLPE (damage score 0-5): 1

## Cc1nc(-c2cncnc2)cnc1NC(=O)OC(C)(C)C [Compound H23]
[1]; Rate 1000 g/ha
  Control of weed species after pre-emergence application, ECHCG (damage score 0-5): 2
[2]; Rate 1000 g/ha
  Control of weed species after pre-emergence application, TRAZW (damage score 0-5): 0
Avena fatua (AVEFA) [3]; Rate 1000 g/ha
  Control of weed species after pre-emergence application, AVEFA (damage score 0-5): 1
[4]; Rate 1000 g/ha
  Control of weed species after pre-emergence application, ALOMY (damage score 0-5): 0
Setaria faberi (SETFA) [5]; Rate 1000 g/ha
  Control of weed species after pre-emergence application, SETFA (damage score 0-5): 4
Lolium perenne (LOLPE) [6]; Rate 1000 g/ha
  Control of weed species after pre-emergence application, LOLPE (damage score 0-5): 0
[7]; Rate 1000 g/ha
  Control of weed species after post-emergence application, ECHCG (damage score 0-5): 4
[8]; Rate 1000 g/ha
  Control of weed species after post-emergence application, TRAZW (damage score 0-5): 1
Avena fatua (AVEFA) [9]; Rate 1000 g/ha
  Control of weed species after post-emergence application, AVEFA (damage score 0-5): 3
[10]; Rate 1000 g/ha
  Control of weed species after post-emergence application, ALOMY (damage score 0-5): 1
Setaria faberi (SETFA) [11]; Rate 1000 g/ha
  Control of weed species after post-emergence application, SETFA (damage score 0-5): 5
Lolium perenne (LOLPE) [12]; Rate 1000 g/ha
  Control of weed species after post-emergence application, LOLPE (damage score 0-5): 2

## CSc1nc(-c2cncc(F)c2)cnc1NC(=O)OC(C)(C)C [Compound H24]
[1]; Rate 1000 g/ha
  Control of weed species after pre-emergence application, ECHCG (damage score 0-5): 2
[2]; Rate 1000 g/ha
  Control of weed species after pre-emergence application, TRAZW (damage score 0-5): 0
Avena fatua (AVEFA) [3]; Rate 1000 g/ha
  Control of weed species after pre-emergence application, AVEFA (damage score 0-5): 2
[4]; Rate 1000 g/ha
  Control of weed species after pre-emergence application, ALOMY (damage score 0-5): 0
Setaria faberi (SETFA) [5]; Rate 1000 g/ha
  Control of weed species after pre-emergence application, SETFA (damage score 0-5): 5
Lolium perenne (LOLPE) [6]; Rate 1000 g/ha
  Control of weed species after pre-emergence application, LOLPE (damage score 0-5): 1
[7]; Rate 1000 g/ha
  Control of weed species after post-emergence application, ECHCG (damage score 0-5): 4
[8]; Rate 1000 g/ha
  Control of weed species after post-emergence application, TRAZW (damage score 0-5): 0
Avena fatua (AVEFA) [9]; Rate 1000 g/ha
  Control of weed species after post-emergence application, AVEFA (damage score 0-5): 3
[10]; Rate 1000 g/ha
  Control of weed species after post-emergence application, ALOMY (damage score 0-5): 0
Setaria faberi (SETFA) [11]; Rate 1000 g/ha
  Control of weed species after post-emergence application, SETFA (damage score 0-5): 5
Lolium perenne (LOLPE) [12]; Rate 1000 g/ha
  Control of weed species after post-emergence application, LOLPE (damage score 0-5): 2

## CSc1cncc(-c2cnc(NC(=O)OC(C)(C)C)c(SC)n2)c1 [Compound H25]
[1]; Rate 250 g/ha
  Control of weed species after pre-emergence application, ECHCG (damage score 0-5): 0
[2]; Rate 250 g/ha
  Control of weed species after pre-emergence application, TRAZW (damage score 0-5): 0
Avena fatua (AVEFA) [3]; Rate 250 g/ha
  Control of weed species after pre-emergence application, AVEFA (damage score 0-5): 0
[4]; Rate 250 g/ha
  Control of weed species after pre-emergence application, ALOMY (damage score 0-5): 0
Setaria faberi (SETFA) [5]; Rate 250 g/ha
  Control of weed species after pre-emergence application, SETFA (damage score 0-5): 0
Lolium perenne (LOLPE) [6]; Rate 250 g/ha
  Control of weed species after pre-emergence application, LOLPE (damage score 0-5): 0
[7]; Rate 250 g/ha
  Control of weed species after post-emergence application, ECHCG (damage score 0-5): 1
[8]; Rate 250 g/ha
  Control of weed species after post-emergence application, TRAZW (damage score 0-5): 0
Avena fatua (AVEFA) [9]; Rate 250 g/ha
  Control of weed species after post-emergence application, AVEFA (damage score 0-5): 1
[10]; Rate 250 g/ha
  Control of weed species after post-emergence application, ALOMY (damage score 0-5): 0
Setaria faberi (SETFA) [11]; Rate 250 g/ha
  Control of weed species after post-emergence application, SETFA (damage score 0-5): 1
Lolium perenne (LOLPE) [12]; Rate 250 g/ha
  Control of weed species after post-emergence application, LOLPE (damage score 0-5): 1
